In general, GI50 refers to the concentration at which growth is held to half of that of the control. The term TGI denotes the concentration at which net growth stops.

From PubChem BioAssay (NCI) come the findings set out here.

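Growth conditions: 96-well plates. Treatment: test compound, 48 hours, 5 concentrations. Analysis: linear interpolation between bracketing concentrations; unreached endpoints set to highest concentration. Here, GI50 denotes the concentration required for 50% inhibition of growth. Definition used: TGI = concentration required for complete inhibition of growth.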 Some results are limits rather than exact numbers.

Among the test systems are UO-31 renal; A498 renal; NCI/ADR-RES ovarian; KM12 colon; NCI-H23 lung; RPMI-8226 leukemia; MCF7 breast; SNB-19 CNS; SR leukemia; RXF 393 renal.
Holding throughout (experiment): DTP human tumour cell line panel, 48 h

In the case of `OCCCCC#Cc1ccccc1C#Cc1ccc(C(F)(F)F)cc1`, the GI50 in the test with UO-31 renal was 16.3 µM; with A498 renal, 15 µM; in the test on NCI/ADR-RES ovarian, 15 µM; with KM12 colon it was 13.9 µM; in the test on NCI-H23 lung it was 16.8 µM; in the test with RPMI-8226 leukemia it was 19.9 µM. In addition, the GI50 is 33.3 µM in the test with MCF7 breast, 17.3 µM with SNB-19 CNS and 0.693 µM in the test with SR leukemia. Besides, the TGI with UO-31 renal came out at 30.3 µM; with A498 renal it was 28.6 µM; in the test on NCI/ADR-RES ovarian, 30.7 µM; in the test on KM12 colon, 29.8 µM; in the test with NCI-H23 lung, 32.4 µM; with RPMI-8226 leukemia, 48.8 µM. For the same compound, the results for the TGI with MCF7 breast, with SNB-19 CNS and with SR leukemia were 85.6 µM, 32.3 µM and 31.8 µM, respectively.

As for `O=C(c1ccccc1)C(Br)C(Br)c1ccccc1` (configuration not stated), the GI50 with UO-31 renal was 1.85 µM; in the test on A498 renal, 12.8 µM; in the test on NCI/ADR-RES ovarian, 2.92 µM; in the test with KM12 colon, 3.5 µM; in the test with RXF 393 renal it was 1.89 µM; with NCI-H23 lung it was 10.4 µM. Besides, the GI50 is 3.44 µM in the test on RPMI-8226 leukemia, 1.79 µM in the test with MCF7 breast and 12.7 µM in the test on SNB-19 CNS. For the same compound, the TGI in the test on UO-31 renal came to 3.87 µM; in the test on A498 renal it was 25.5 µM; with NCI/ADR-RES ovarian, 9.55 µM; in the test with KM12 colon, 11.3 µM; with RXF 393 renal, 3.51 µM; with NCI-H23 lung, 23.8 µM. In addition, the TGI in the test on RPMI-8226 leukemia was 8.11 µM; with MCF7 breast, 7.85 µM; in the test with SNB-19 CNS, 25.7 µM.

With `CCOc1ccc(Nc2nc(-c3c(C)nc4ncccn34)cs2)cc1`, the GI50 in the test with UO-31 renal was 0.0537 µM; in the test on A498 renal, < 0.01 µM; with NCI/ADR-RES ovarian, < 0.01 µM; in the test on KM12 colon it was 0.034 µM; with NCI-H23 lung, 0.0623 µM; in the test on RPMI-8226 leukemia it was 0.0366 µM. In addition, the 50% growth inhibitory concentration (GI50) was 0.412 µM in the test on MCF7 breast, 0.0538 µM in the test with SNB-19 CNS and 0.0153 µM in the test on SR leukemia. The concentration for total growth inhibition (TGI) with UO-31 renal was 18.6 µM; in the test with A498 renal, 0.0678 µM; in the test on NCI/ADR-RES ovarian it was 29.1 µM; with KM12 colon, 13.8 µM; with NCI-H23 lung, 22.2 µM; in the test on RPMI-8226 leukemia, 14.5 µM. Also, the TGI with MCF7 breast was determined as 14.9 µM; in the test on SNB-19 CNS, 23.5 µM; with SR leukemia, 19.7 µM.

In the case of `O=C1CCS/C(=N/S(=O)(=O)c2ccc(N3N=C4c5ccccc5CC4C3c3cccs3)cc2)N1Cc1ccccc1` (configuration not stated), the GI50 with UO-31 renal was 28.3 µM; with NCI/ADR-RES ovarian it was 20.8 µM; in the test on KM12 colon, 17.1 µM; in the test on RXF 393 renal it was 21.2 µM; in the test with NCI-H23 lung, 16.7 µM; with RPMI-8226 leukemia it was 18.1 µM. In addition, the GI50 in the test with MCF7 breast was > 100 µM; in the test with SNB-19 CNS it was 22.3 µM. The TGI in the test with UO-31 renal was > 100 µM; in the test on NCI/ADR-RES ovarian, 40.1 µM; in the test with KM12 colon, 41 µM; with RXF 393 renal, 63.9 µM; in the test on NCI-H23 lung, 31.8 µM; in the test with RPMI-8226 leukemia, > 100 µM. For the same compound, the figures for the TGI in the test on MCF7 breast and with SNB-19 CNS were > 100 µM and 77.7 µM, respectively.

As to `Nc1ncnc2c1nc(Cl)n2C1OC(CO)C(O)C1O` (configuration not stated), the TGI in the test on UO-31 renal was > 100 µM; with A498 renal it was > 100 µM; with NCI/ADR-RES ovarian it was > 100 µM; in the test on KM12 colon, > 100 µM; in the test on RXF 393 renal, 4.29 µM; in the test on NCI-H23 lung, > 100 µM. In addition, the total growth inhibition concentration (TGI) in the test with MCF7 breast, in the test with SNB-19 CNS and in the test on SR leukemia was > 100 µM in each case.

`O=C(C(=O)c1cc(Br)ccc1O)c1cc(Br)ccc1O`: the GI50 in the test on UO-31 renal was 1.97 µM; in the test on NCI/ADR-RES ovarian, 3.36 µM; in the test on KM12 colon, 3.21 µM; with NCI-H23 lung, 3.38 µM; with RPMI-8226 leukemia, 2.71 µM; in the test on MCF7 breast, 7.34 µM. Also, the GI50 was 4.39 µM in the test with SNB-19 CNS and 3.15 µM in the test with SR leukemia. Moreover, the TGI is 6.51 µM in the test on UO-31 renal; > 100 µM with NCI/ADR-RES ovarian; 11.4 µM with KM12 colon; 19.1 µM in the test with NCI-H23 lung; 88.2 µM in the test on RPMI-8226 leukemia; > 100 µM with MCF7 breast. Moreover, the TGI is > 100 µM in the test with SNB-19 CNS and 53.2 µM in the test on SR leukemia.

`O=C(O)Cn1ccc(=O)c2cc([N+](=O)[O-])ccc21`: the TGI with UO-31 renal, with A498 renal, in the test on NCI/ADR-RES ovarian, in the test with KM12 colon, with NCI-H23 lung and with MCF7 breast was > 100 µM throughout. Moreover, the TGI in the test with SNB-19 CNS and in the test with SR leukemia was > 100 µM in each case.

With `COc1cc(OC)cc(-c2ccc(-c3ccc(C(=N)N)cn3)s2)c1`, the GI50 was 1.65 µM in the test with UO-31 renal; 3.27 µM in the test on NCI/ADR-RES ovarian; 1.84 µM with KM12 colon; 1.83 µM with RXF 393 renal; 1.78 µM in the test on NCI-H23 lung; 2.46 µM in the test on RPMI-8226 leukemia. Further, the results for the GI50 in the test with MCF7 breast, in the test on SNB-19 CNS and in the test with SR leukemia were 1.77 µM, 1.8 µM and 3.51 µM, respectively. Further, the TGI in the test on UO-31 renal came out at 3.31 µM; in the test on NCI/ADR-RES ovarian, 11.6 µM; in the test on KM12 colon, 3.48 µM; in the test with RXF 393 renal, 3.34 µM; with NCI-H23 lung, 3.5 µM; with RPMI-8226 leukemia, 5.51 µM. Moreover, the values for the TGI in the test on MCF7 breast, with SNB-19 CNS and with SR leukemia were 3.6 µM, 3.59 µM and 10.9 µM, respectively.

On to `c1cncc(C2ONC3=NCCN32)c1` (configuration not stated), for which the GI50 was 2.27 µM in the test with UO-31 renal; 16.6 µM in the test with A498 renal; 22.1 µM in the test with NCI/ADR-RES ovarian; 21.2 µM with KM12 colon; 20.9 µM with RXF 393 renal; 54 µM in the test with NCI-H23 lung. The GI50 with MCF7 breast was 17.5 µM; in the test on SNB-19 CNS it was 69.7 µM. In addition, the TGI with UO-31 renal was > 100 µM; with A498 renal, 40.2 µM; in the test with NCI/ADR-RES ovarian, 80.4 µM; in the test on KM12 colon, > 100 µM; with RXF 393 renal, 96.3 µM; in the test with NCI-H23 lung, > 100 µM. Further, the TGI with MCF7 breast and with SNB-19 CNS was > 100 µM throughout.
